# Data reported in PMC10609013, “Solubility and Thermodynamic Analysis of Isotretinoin in Different (DMSO + Water) Mixtures” (Molecules, 2023).
# Several values for one entry are separate records, joined by “and”; a condition that tells them apart may be missing. Equal values may be shown once.
# Assays:
# Type in all cases: physicochemical
# [1] = Shake flask solubility of ITN in {DMSO (1) + H2O (2)} mixes, HPLC; details: 101.1 kPa
# Procedure: A series of {DMSO (1) + H2O (2)} solutions, with DMSO mass percentages ranging from 0.10 to 0.90, was examined. Three replicates of each {DMSO (1) + H2O (2)} combination were taken. ITN’s mole fraction solubility versus mass fraction of DMSO (m = 0.0–1.0) and neat DMSO and H2O was measured using a shake flask approach at 298.2–318.2 K and 101.1 kPa. In essence, the known amounts of each {DMSO (1) + H2O (2)} combination and neat DMSO and H2O were combined with extra ITN crystals in triplicate. The equilibrium was achieved by saturating the resultant mixes in a WiseBath® WSB shaking water bath (Model WSB-18/30/-45, Daihan Scientific Co. Ltd., Seoul, Korea) at a shaking speed of 100 rpm for 72 h. In order to evaluate the equilibrium time, the preliminary experiments were performed at different time intervals. […] The saturated solutions were again removed from the shaker after they had reached equilibrium and centrifuged for 30 min at 5000 rpm. A previously established environmentally friendly HPLC method was used to assess the ITN content after the supernatants were isolated and diluted (as required). The identification of ITN was carried out via a Nucleodur (dimensions: 150 mm × 4.6 mm and particle size: 5 μm) reversed-phase C18 analytical column at 298.2 K. The environmentally friendly mobile used was a binary mixture of ethyl acetate and ethanol (50:50% v v^−1). The mobile phase was delivered with a flow speed of 1 mL min^−1. The ITN measurements were performed at a wavelength of 354 nm. The sample volume was 20 μL, which was injected using a Waters autosampler. The Analytical GREEnness (AGREE) score was determined to evaluate the eco-friendliness nature of the HPLC method. The AGREE score was predicted to be 0.76 for the present HPLC method, indicating the eco-friendly nature of the HPLC method. ITN mole fraction solubilities (xe) were calculated using their standard formulae described in our previous work.
# [2] = Apparent thermodynamic analysis of ITN dissolution (van't Hoff and Gibbs equations)
# Procedure: At the mean harmonic temperature (Thm), all apparent thermodynamic parameters for ITN were determined. The Thm was determined using the reported equation [51, 56]. […] The “van’t Hoff and Gibbs equations” were used to calculate these parameters. The ΔsolH^0 values for ITN (3) in various {DMSO (1) + H2O (2)} mixtures were calculated using Equation (10) and Thm = 308 K [47, 62]:(10) ∂lnxe/∂1/T−1/ThmP=−∆solH^0/R
# The “ΔsolH^0” for ITN was derived using the graphed “van’t Hoff” plots between the ln xe values of ITN and 1/T−1/Thm .
# Additionally, at Thm = 308 K, the ΔsolG^0 for ITN (3) in binary {DMSO (1) + H2O (2)} mixes was calculated using the Krug et al. methodology via Equation (11):(11) ∆solG^0=−RThm×intercept where, the “van’t Hoff plots” shown in Figure 5 were used to determine the intercept values for ITN (3) in binary mixtures of DMSO (1) and H2O (2).
# By Equation (12), the ΔsolS^0 for ITN (3) in numerous {DMSO (1) + H2O (2)} mixtures was derived:(12) ∆solS^0=∆solH^0−∆solG^0/Thm
# [3] = Enthalpy-entropy compensation analysis; details: all {DMSO (1) + H2O (2)} mixes, neat DMSO and H2O, Thm = 308 K
# Source text: An enthalpy–entropy compensation analysis was used, as previously described, to evaluate the solvation behavior of ITN (3) in numerous mixes of {DMSO (1) + H2O (2)}. Weighted curves of ΔsolH° vs. ΔsolG° were generated at Thm = 308 K for this experiment.
# [4] = DMSO mass fraction m = 0.0, Thm = 308 K
# [5] = DMSO mass fraction m = 0.1, Thm = 308 K
# [6] = DMSO mass fraction m = 0.2, Thm = 308 K
# [7] = DMSO mass fraction m = 0.3, Thm = 308 K
# [8] = DMSO mass fraction m = 0.4, Thm = 308 K
# [9] = DMSO mass fraction m = 0.5, Thm = 308 K
# [10] = DMSO mass fraction m = 0.6, Thm = 308 K
# [11] = DMSO mass fraction m = 0.7, Thm = 308 K
# [12] = DMSO mass fraction m = 0.8, Thm = 308 K
# [13] = DMSO mass fraction m = 0.9, Thm = 308 K
# [14] = DMSO mass fraction m = 1.0, Thm = 308 K
smiles,measurement,setting,value
"CC1=C(/C=C/C(C)=C/C=C/C(C)=C\C(=O)O)C(C)(C)CCC1 [ITN, isotretinoin]",xe experimental solubility,"[1]; DMSO mass fraction m = 0.9, T = 298.2 K",2.44 (0.02) × 10^−2 mole fraction
same,xe experimental solubility,"[1]; DMSO mass fraction m = 0.9, T = 303.2 K",2.66 (0.03) × 10^−2 mole fraction
same,xe experimental solubility,"[1]; DMSO mass fraction m = 0.9, T = 308.2 K",2.86 (0.03) × 10^−2 mole fraction
same,xe experimental solubility,"[1]; DMSO mass fraction m = 0.9, T = 313.2 K",3.19 (0.04) × 10^−2 mole fraction
same,xe experimental solubility,"[1]; DMSO mass fraction m = 0.9, T = 318.2 K",3.39 (0.05) × 10^−2 mole fraction
same,xe experimental solubility,"[1]; DMSO mass fraction m = 1.0, T = 298.2 K",8.47 (0.10) × 10^−2 mole fraction
same,xe experimental solubility,"[1]; DMSO mass fraction m = 1.0, T = 303.2 K",8.88 (0.11) × 10^−2 mole fraction
same,xe experimental solubility,"[1]; DMSO mass fraction m = 1.0, T = 308.2 K",9.31 (0.12) × 10^−2 mole fraction
same,xe experimental solubility,"[1]; DMSO mass fraction m = 1.0, T = 313.2 K",9.80 (0.13) × 10^−2 mole fraction
same,xe experimental solubility,"[1]; DMSO mass fraction m = 1.0, T = 318.2 K",1.02 × 10^−1 mole fraction and 1.02 (0.01) × 10^−1 mole fraction
same,ΔsolG^0 apparent standard Gibbs energy,[2]; [4],36.27 (0.43) kJ mol^−1
same,ΔsolH^0 apparent standard enthalpy,[2]; [4],63.00 (0.76) kJ mol^−1
same,ΔsolS^0 apparent standard entropy,[2]; [4],86.78 (1.12) J mol^−1 K^−1
same,ΔsolG^0 apparent standard Gibbs energy,[2]; [5],33.20 (0.41) kJ mol^−1
same,ΔsolH^0 apparent standard enthalpy,[2]; [5],57.15 (0.67) kJ mol^−1
same,ΔsolS^0 apparent standard entropy,[2]; [5],77.75 (1.03) J mol^−1 K^−1
same,ΔsolG^0 apparent standard Gibbs energy,[2]; [6],30.19 (0.39) kJ mol^−1
same,ΔsolH^0 apparent standard enthalpy,[2]; [6],52.98 (0.63) kJ mol^−1
same,ΔsolS^0 apparent standard entropy,[2]; [6],73.99 (1.00) J mol^−1 K^−1
same,ΔsolG^0 apparent standard Gibbs energy,[2]; [7],27.15 (0.37) kJ mol^−1
same,ΔsolH^0 apparent standard enthalpy,[2]; [7],46.19 (0.52) kJ mol^−1
same,ΔsolS^0 apparent standard entropy,[2]; [7],61.83 (0.98) J mol^−1 K^−1
same,ΔsolG^0 apparent standard Gibbs energy,[2]; [8],24.14 (0.36) kJ mol^−1
same,ΔsolH^0 apparent standard enthalpy,[2]; [8],41.89 (0.48) kJ mol^−1
same,ΔsolS^0 apparent standard entropy,[2]; [8],57.59 (0.92) J mol^−1 K^−1
same,ΔsolG^0 apparent standard Gibbs energy,[2]; [9],21.13 (0.30) kJ mol^−1
same,ΔsolH^0 apparent standard enthalpy,[2]; [9],35.40 (0.42) kJ mol^−1
same,ΔsolS^0 apparent standard entropy,[2]; [9],46.31 (0.81) J mol^−1 K^−1
same,ΔsolG^0 apparent standard Gibbs energy,[2]; [10],18.10 (0.26) kJ mol^−1
same,ΔsolH^0 apparent standard enthalpy,[2]; [10],31.28 (0.40) kJ mol^−1
same,ΔsolS^0 apparent standard entropy,[2]; [10],42.78 (0.74) J mol^−1 K^−1
same,ΔsolG^0 apparent standard Gibbs energy,[2]; [11],15.10 (0.24) kJ mol^−1
same,ΔsolH^0 apparent standard enthalpy,[2]; [11],23.95 (0.32) kJ mol^−1
same,ΔsolS^0 apparent standard entropy,[2]; [11],28.74 (0.56) J mol^−1 K^−1
same,ΔsolG^0 apparent standard Gibbs energy,[2]; [12],12.07 (0.20) kJ mol^−1
same,ΔsolH^0 apparent standard enthalpy,[2]; [12],20.05 (0.28) kJ mol^−1
same,ΔsolS^0 apparent standard entropy,[2]; [12],25.90 (0.48) J mol^−1 K^−1
same,ΔsolG^0 apparent standard Gibbs energy,[2]; [13],9.078 (0.14) kJ mol^−1
same,ΔsolH^0 apparent standard enthalpy,[2]; [13],13.35 (0.22) kJ mol^−1
same,ΔsolS^0 apparent standard entropy,[2]; [13],13.87 (0.23) J mol^−1 K^−1
same,ΔsolG^0 apparent standard Gibbs energy,[2]; [14],6.077 (0.09) kJ mol^−1
same,ΔsolH^0 apparent standard enthalpy,[2]; [14],7.430 (0.10) kJ mol^−1
same,ΔsolS^0 apparent standard entropy,[2]; [14],4.392 (0.10) J mol^−1 K^−1
same,nature of dissolution,"[2]; all {DMSO (1) + H2O (2)} mixes, including neat DMSO and H2O",endothermic and entropy-driven
same,solvation driven mechanism,[3],enthalpy-driven
